Patent US20190062305A1, “PYRIDYL OR PYRAZINYL COMPOUNDS CARRYING A METHYL-BOUND ALPHA-AMINO ACID AMIDE GROUP” (ABBVIE DEUTSCHLAND GMBH & CO. KG, priority 2015, published 2019)
pEC50: −log10 of the molar value. Structures can show the parent of a compound that is named as a salt. One block for each compound: values may come before it.

What was measured:
5-HT2C receptor = molecular target: T1, 5-HT2C receptor (Homo sapiens, UniProt P28335); assay: Human 5-HT2C functional assay (beta-arrestin2 recruitment, U2OS_HTR2C_β-Arrestin cells); assay type: cell-based; conditions: for pEC50: beta-arrestin2 recruitment, U2OS_HTR2C_β-Arrestin cells, 1.5 h incubation, read-out: EC50 5-HT2C (potency in functional assay); for Emax: relative efficacy vs response to 10 μM 5-HT or maximal 5-HT effect (100%)
T1 construct: host or cells: U2OS
Outline: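 U2OS cells expressing HTR2C with β-galactosidase complementation, switched to 1% serum medium 24 h post-plating, were treated next day with compound for 1.5 h; chemiluminescence read. Response expressed as % of 10 µM 5-HT or maximal 5-HT effect; EC50 from 4-parameter variable-slope fit.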

[1] = Metabolic stability in human liver microsomes, unbound intrinsic clearance (Cl int/fu mic); assay type: in vitro ADME; conditions: human, liver microsomes, pH 7.4, human liver microsomes 0.25 mg/mL, 0.5 μM compound, NADPH, read-out: Cl int, mic unb. (h) [l/h/kg] (unbound intrinsic clearance, human)
Outline: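 Compound (0.5 µM) was incubated with human liver microsomes (0.25 mg/mL) in pH 7.4 phosphate buffer at 37 °C with 1.0 mM NADPH, sampling from 0–30 min. Depletion was followed by LC-MS/MS, and CLint was derived from first-order t1/2 per mg protein. Microsomal unbound fraction came from 4 h equilibrium dialysis at 37 °C, giving CLint/fu mic.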

T1 sequence (P28335 33-458): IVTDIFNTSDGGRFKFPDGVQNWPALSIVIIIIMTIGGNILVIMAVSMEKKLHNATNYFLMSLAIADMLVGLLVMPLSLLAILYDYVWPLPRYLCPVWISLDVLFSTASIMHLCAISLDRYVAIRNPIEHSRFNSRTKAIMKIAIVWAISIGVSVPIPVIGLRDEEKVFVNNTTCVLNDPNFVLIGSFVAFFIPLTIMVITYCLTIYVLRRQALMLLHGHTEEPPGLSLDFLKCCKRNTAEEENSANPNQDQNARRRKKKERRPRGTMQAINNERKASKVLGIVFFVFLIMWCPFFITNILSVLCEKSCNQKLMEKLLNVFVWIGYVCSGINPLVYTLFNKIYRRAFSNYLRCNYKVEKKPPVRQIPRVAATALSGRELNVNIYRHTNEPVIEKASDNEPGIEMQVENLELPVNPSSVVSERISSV
T1 sequence (P32121 whole entry partner): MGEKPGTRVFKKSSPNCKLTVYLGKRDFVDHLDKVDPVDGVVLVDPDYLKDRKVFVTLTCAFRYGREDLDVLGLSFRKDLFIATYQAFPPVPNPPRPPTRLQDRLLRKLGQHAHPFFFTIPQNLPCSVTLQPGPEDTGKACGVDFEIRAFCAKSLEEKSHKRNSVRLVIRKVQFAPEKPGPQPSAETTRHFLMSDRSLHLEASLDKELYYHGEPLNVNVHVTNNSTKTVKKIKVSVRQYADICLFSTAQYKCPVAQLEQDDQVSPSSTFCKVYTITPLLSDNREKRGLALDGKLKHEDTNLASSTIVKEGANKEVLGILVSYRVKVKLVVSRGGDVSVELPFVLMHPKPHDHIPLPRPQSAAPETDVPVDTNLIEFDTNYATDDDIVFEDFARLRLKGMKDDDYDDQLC

SMILES: COc1nc(OCC2CCC(F)(F)C2)c(F)cc1CNC(=O)[C@@H]1CCCN1C (stereo partly drawn) [Example 7, (2S)—N-[[6-[(3,3-Difluorocyclopentyl)methoxy]-5-fluoro-2-methoxy-3-pyridyl]-methyl]-1-methyl-pyrrolidine-2-carboxamide; Fumaric Acid]
pEC50 (5-HT2C receptor): > 7.70
Emax (5-HT2C receptor): > 70%
CLint scaled at 0.5 μM [1]: < 5 L/h/kg

SMILES: COc1nc(OCC(F)F)c(F)cc1CNC(=O)[C@@H]1CCCN1 [Example 86, (2S)—N-[[6-(2,2-Difluoroethoxy)-5-fluoro-2-methoxy-3-pyridyl]methyl]pyrrolidine-2-carboxamide; 2,2,2-trifluoroacetic Acid]
pEC50 (5-HT2C receptor): > 7.70
Emax (5-HT2C receptor): > 70%
CLint scaled at 0.5 μM [1]: < 5 L/h/kg

SMILES: COc1nc(N2CCC(F)(F)C2)c(F)cc1CNC(=O)[C@@H]1CCCN1 [Example 164, (2S)—N-[[6-(3,3-Difluoropyrrolidin-1-yl)-5-fluoro-2-methoxy-3-pyridyl]methyl]pyrrolidine-2-carboxamide; 2,2,2-trifluoroacetic Acid]
pEC50 (5-HT2C receptor): 6.70 to 7.70
Emax (5-HT2C receptor): > 70%
CLint scaled at 0.5 μM [1]: < 5 L/h/kg

SMILES: COc1nc(N2CC(Oc3ccccc3)C2)c(F)cc1CNC(=O)[C@@H]1CCCN1 [Example 175, (2S)—N-[[5-Fluoro-2-methoxy-6-(3-phenoxyazetidin-1-yl)-3-pyridyl]methyl]-pyrrolidine-2-carboxamide; 2,2,2-trifluoroacetic Acid]
pEC50 (5-HT2C receptor): 6.70 to 7.70
Emax (5-HT2C receptor): 50 to 70%
CLint scaled at 0.5 μM [1]: 5 to 50 L/h/kg

SMILES: COc1nc(CC2CCOCC2)c(F)cc1CNC(=O)[C@@H]1CCCN1 [Example 189, (2S)—N-[[5-Fluoro-2-methoxy-6-(tetrahydropyran-4-ylmethyl)-3-pyridyl]methyl]-pyrrolidine-2-carboxamide; 2,2,2-trifluoroacetic Acid]
pEC50 (5-HT2C receptor): 6.00 to 6.70
Emax (5-HT2C receptor): 50 to 70%
CLint scaled at 0.5 μM [1]: < 5 L/h/kg

SMILES: COc1nc(OC2CCC(C(C)(F)F)CC2)c(F)cc1CNC(=O)[C@@H]1CCCN1 (stereo partly drawn) [Example 72, (2S)—N-((6-((4-(1,1-Difluoroethyl)cyclohexyl)oxy)-5-fluoro-2-methoxypyridin-3-yl)methyl)pyrrolidine-2-carboxamide 2,2,2-trifluoroacetate]
pEC50 (5-HT2C receptor): > 7.70
Emax (5-HT2C receptor): > 70%
CLint scaled at 0.5 μM [1]: 5 to 50 L/h/kg

pEC50 (5-HT2C receptor): 6.70 to 7.70
Emax (5-HT2C receptor): > 70%
CLint scaled at 0.5 μM [1]: 5 to 50 L/h/kg
SMILES: COc1nc(N2CC3C(C2)C3(F)F)c(F)cc1CNC(=O)[C@@H]1CCCN1 (stereo partly drawn) [Example 183, (2S)—N-[[6-(6,6-Difluoro-3-azabicyclo[3.1.0]hexan-3-yl)-5-fluoro-2-methoxy-3-pyridyl]methyl]pyrrolidine-2-carboxamide]

SMILES: COc1nc(O[C@H]2CC[C@H](F)CC2)c(F)cc1CNC(=O)[C@@H]1CCCN1C [Example 28, (2S)—N-[[5-Fluoro-6-(trans-4-fluorocyclohexoxy)-2-methoxy-3-pyridyl]methyl]-1-methyl-pyrrolidine-2-carboxamide; Fumaric Acid]
pEC50 (5-HT2C receptor): > 7.70
Emax (5-HT2C receptor): > 70%
CLint scaled at 0.5 μM [1]: < 5 L/h/kg

SMILES: COc1nc(OCC2CC(F)(F)C2)c(F)cc1CNC(=O)[C@@H]1CCCN1C [Example 92, (2S)—N-[[6-[(3,3-Difluorocyclobutyl)methoxy]-5-fluoro-2-methoxy-3-pyridyl]-methyl]-1-methyl-pyrrolidine-2-carboxamide Hydrochloride]
pEC50 (5-HT2C receptor): > 7.70
Emax (5-HT2C receptor): > 70%
CLint scaled at 0.5 μM [1]: < 5 L/h/kg

SMILES: COc1nc(OCC2CCC(F)(F)CC2)c(F)cc1CNC(=O)[C@@H]1CCCN1 [Example 4, (2S)—N-[[6-[(4,4-Difluorocyclohexyl)methoxy]-5-fluoro-2-methoxy-3-pyridyl]-methyl]pyrrolidine-2-carboxamide; Fumaric Acid]
pEC50 (5-HT2C receptor): > 7.70
Emax (5-HT2C receptor): > 70%
CLint scaled at 0.5 μM [1]: 5 to 50 L/h/kg

SMILES: COc1nc(OCC2CC(F)(F)C2)c(F)cc1CN(C)C(=O)[C@@H]1CCCN1 [Example 115, (2S)—N-[[6-[(3,3-Difluorocyclobutyl)methoxy]-5-fluoro-2-methoxy-3-pyridyl]-methyl]-N-methyl-pyrrolidine-2-carboxamide Hydrochloride]
pEC50 (5-HT2C receptor): > 7.70
Emax (5-HT2C receptor): 50 to 70%
CLint scaled at 0.5 μM [1]: < 5 L/h/kg
